Experimental data from EP0372667A1, “2-Hydroxymethyl thiophene derivatives, process for their preparation and their use as medicaments” (SCHERING AKTIENGESELLSCHAFT, priority 1988, dated 1990).
Where a name gives a salt, the structure may show the parent alone.

How the values were obtained:
[1] = test system: narkotisierten, normtensiven Hunden; experiment: Blood pressure and heart rate in anaesthetised normotensive dogs; format: in vivo, Beagle-Hunde; settings: anaesthetised normotensive dog, at a dose giving a similar fall in blood pressure; text summary of Tabelle 2
Text: (§1) Die Messungen von Blutdruck und Herzfrequenz wurden an der spontan hypertensiven Ratte und am narkotisierten, normotensiven Hund durchgeführt (siehe Tabelle 1 und 2).

[2] = test system: wachen, spontan hypertensiven Ratten; experiment: Blood pressure and heart rate in conscious spontaneously hypertensive rats; settings: in vivo
Text: as §1

## Cc1cc2c(s1)CCC(CN[C@@H]1CC[C@@H](Oc3ccccc3)[C@@H]1O)C2=O (relative stereo) [MDL 19744 A]
[1]
  Herzfrequenz (result in words): ausgeprägten Herzfrequenzsteigerung
[2]
  Herzfrequenz (result in words): ausgeprägten Herzfrequenzsteigerung

## O=C1c2cc(CO)sc2CCC1CN[C@@H]1CC[C@@H](Oc2ccccc2)[C@@H]1O (relative stereo) [Beispiel 1, 5-[N-((Z)-2-Hydroxy-(E)-3-phenoxy-cyclopentyl)-aminomethyl]-4,5,6,7-tetrahydro-2-hydroxymethyl-benzothiophen-4-on, Hydrochlorid]
[1]
  Herzfrequenz (result in words): praktisch keine Herzfrequenzänderung
[2]
  Herzfrequenz (result in words): Herzfrequenzerniedrigung
